Measured values reported in publication PMC7221826, “5-Oxo-hexahydroquinoline Derivatives and Their Tetrahydroquinoline Counterparts as Multidrug Resistance Reversal Agents” (Molecules, 2020).
Where two headings read alike, the source gives them in different places.

Legend:
MES-SA-DX5 = assay: MTT cell viability assay, MES-SA-DX5; type: cell-based, human; settings: multidrug resistant, P-gp overexpressing, read-out: IC50 (µM) in Cultured Cells MES-SA-DX5
From the text: (§1) Cell lines used for cytotoxicity assays included MCF-7 (human breast adenocarcinoma), A549 (human lung adenocarcinoma), K562 (human chronic myelogenous leukemia) and HEK-293 (human embryonic kidney) cells and were obtained from the Iranian Biological Resource Center, Tehran, Iran. MES-SA-DX5 multidrug resistant human uterine sarcoma, over-expressing P-gp and their parental non-resistant MES-SA cell lines were purchased from Sigma-Aldrich (St. Louis, MO, USA). All cells, except for HEK-293, were cultured in RPMI 1640 supplemented with 10% FBS and 100 units/mL penicillin-streptomycin at 37 °C in humidified air containing 5% CO2. HEK-293 cells were maintained in DMEM-F12 medium containing L-glutamine 2 mM supplemented with FBS and penicillin-streptomycin. MES-SA-DX5 cells were maintained in media containing 100 nM doxorubicin in order to ensure that only drug-resistant cells continue to grow.
(§2) Cytotoxicity of the test compounds were evaluated by MTT assay. In this method, reduction of MTT, a yellow tetrazolium salt to the purple formazan, by cellular dehydrogenase enzymes is determined as an index of cell viability. Cancer cells were seeded into 96-well plates (3–5 × 10^3 cells/well) and incubated for 24 h at 37 °C. Afterwards, four different concentrations of synthesized derivatives were added in triplicate and the cells were incubated at 37 °C for another 72 h, after which the media was replaced with MTT solution at a concentration of 0.5 mg/mL was added for MTT assay. After another 4h, formazan crystals were dissolved in 200 μL DMSO for 90 min and absorbance was measured at a wavelength of 570 nm with background correction at 650 nm using a microplate reader (model 680, Bio-Rad, Hercules, CA, USA) and IC50 for each compound was calculated with CurveExpert version 1.34 for Windows.

A-549 = assay: MTT cell viability assay, A-549; type: cell-based, human; settings: read-out: IC50 (µM) in Cultured Cells A-549
From the text: as §1, §2

K562 = assay: MTT cell viability assay, K562; type: cell-based, human; settings: read-out: IC50 (µM) in Cultured Cells K562
From the text: as §1, §2

MES-SA = assay: MTT cell viability assay, MES-SA; type: cell-based, human; settings: for IC50: MTT, 72 h, parental non-resistant, read-out: IC50 (µM) in Cultured Cells MES-SA
From the text: as §1, §2

HEK-293 = assay: MTT cell viability assay, HEK-293; type: cell-based, human; settings: non-cancerous, read-out: IC50 (µM) in Cultured Cells HEK-293
From the text: as §1, §2

MCF-7 = assay: MTT cell viability assay, MCF-7; type: cell-based, human; settings: read-out: IC50 (µM) in Cultured Cells MCF-7
From the text: as §1, §2

MES-SA-DX5 cells = assay: Cell cycle analysis by propidium iodide (PI)-RNase flow cytometry; type: cell-based, human; design: Sub G1: unit not given here; settings: 24 h
Method: The analysis of cells in different phases of cell cycle and sub-G1 was performed using propidium iodide (PI)-RNase assay by flow cytometry. MES-SA-DX5 cells were seeded in 12-well plates (1 × 10^6 cells/well) and treated with different concentrations of synthesized compounds for 24 h. The cells were then collected, washed with PBS, and fixed with 70% ethanol overnight at –20 °C. After at least 24 h, fixed cells were washed with PBS and subsequently stained with a DNA staining solution containing PI 20 μg/mL and RNase 200 μg/mL at room temperature for 30 min in the dark. Twenty thousand cells of each sample were analyzed using a BD FACSCalibur flow cytometer (BD Biosciences, USA) and the amount of the cells in sub-G1, G0/G1, S, and G2/M phases were estimated using CellQuest (Becton Dickinson, San Jose, CA, USA) software.
Therefore, it could be concluded that these compounds cause cytotoxicity in drug resistant MES-SA-DX5 cells by induction of apoptosis in these cells.
Figure 3 Effect of synthesized derivatives on cell cycle alterations in MES-SA-DX5 drug resistant cells. The cells in different phases of cell cycle were monitored using propidium iodide (PI)-RNase assay by flow cytometry. MES-SA-DX5 cells were seeded in 12-well plates (1 × 10^6 cells/well) and treated with different concentrations of synthesized compounds for 24 h. The cells were then collected, washed with PBS and fixed with 70% ethanol overnight at –20 °C. After at least 24 h, fixed cells were washed with PBS and subsequently stained with a DNA staining solution containing PI 20 μg/mL and RNase 200 μg/mL at room temperature for 30 min in the dark. Twenty thousand cells of each sample were analyzed using a FACS Calibur flow cytometer (BD Biosciences, USA). Representative histograms of cells treated with synthesized compounds are shown. An increase in sub-G1 phase cells could be observed after treatment with A1, A2, B1, and B2 compounds.

| Compound | melting point | IC50 (A-549; Homo sapiens, A549, 72 h) | IC50 (K562; Homo sapiens, K562, 72 h) | IC50 (MCF-7; Homo sapiens, MCF7, 72 h) | IC50 (HEK-293; 72 h) | IC50 (MES-SA-DX5; Homo sapiens, MES-SA/Dx5, 72 h) | IC50 (MES-SA; Homo sapiens, MES-SA) | IC50 (HEK-293; Homo sapiens, HEK293, 72 h) | other results |
| --- | --- | --- | --- | --- | --- | --- | --- | --- | --- |
| N.N.[Cl][Pt][Cl] [Cisplatin, cisplatin, reference compound] | – | – | – | – | 1.1 ± 0.5 µM | – | – | – | IC50 (MES-SA-DX5; 72 h): 8.6 ± 0.5 µM; IC50 (A-549; 72 h): 14 ± 0.5 µM; IC50 (K562; 72 h): 3.3 ± 2.3 µM; IC50 (MES-SA): 1.2 ± 0.1 µM; IC50 (MCF-7; 72 h): 26.3 ± 7.9 µM |
| 4-(3,4-Dimethoxyphenyl)-2-methyl-N-(5-methylthiazol-2-yl)-5-oxo-5,6,7,8-tetrahydroquinoline-3-carboxamide [Compound B8] | – | – | – | – | – | – | – | – | IC50 (MES-SA-DX5; 72 h): > 100 µM; IC50 (A-549; 72 h): > 100 µM; IC50 (K562; 72 h): 67.5 ± 8 µM; IC50 (MCF-7; 72 h): > 100 µM |
| COc1cccc2c1C(=O)c1c(O)c3c(c(O)c1C2=O)C[C@@](O)(C(=O)CO)C[C@@H]3O[C@H]1C[C@H](N)[C@H](O)[C@H](C)O1 [Doxorubicin, reference compound] | – | 0.575 ± 0.127 µM | 0.042 ± 0.006 µM | 0.115 ± 0.042 µM | – | 2.2 ± 0.3 µM | 0.01 ± 0.002 µM | 0.009 ± 0.002 µM | sensitivity of parental MES-SA cells compared to resistant cells (MES-SA; MES-SA vs MES-SA-DX5, MTT): more than 200 times; G0/G1 (MES-SA-DX5 cells; 2.5 µM): 34.23 ± 3.3; G2/M (MES-SA-DX5 cells; 2.5 µM): 52.10 ± 4.4; S (MES-SA-DX5 cells; 2.5 µM): 12.57 ± 1.4; Sub G1 (MES-SA-DX5 cells; 2.5 µM): 1.08 ± 0.2; G0/G1 (MES-SA-DX5 cells; 5 µM): 21.50 ± 2.5; G2/M (MES-SA-DX5 cells; 5 µM): 64.13 ± 4.2; S (MES-SA-DX5 cells; 5 µM): 12.57 ± 1.7; Sub G1 (MES-SA-DX5 cells; 5 µM): 1.81 ± 0.3 |
| COc1cc(C2C(C(=O)Nc3csc(C)n3)=C(C)NC3=C2C(=O)CCC3)cc(OC)c1OC (stereo not shown) [Compound A4, 2-Methyl-N-(2-methylthiazol-4-yl)-5-oxo-4-(3,4,5-trimethoxyphenyl)-1,4,5,6,7,8-hexahydroquinoline-3-carboxamide] | 160 °C | > 100 µM | > 100 µM | > 100 µM | – | > 100 µM | – | – | – |
| CCOc1cc(C2C(C(=O)Nc3csc(C)n3)=C(C)NC3=C2C(=O)CCC3)ccc1O (stereo not shown) [Compound A6, 4-(3-Ethoxy-4-hydroxyphenyl)-2-methyl-N-(2-methylthiazol-4-yl)-5-oxo-1,4,5,6,7,8-hexahydroquinoline-3-carboxamide] | 251 °C | > 100 µM | > 100 µM | > 100 µM | – | > 100 µM | – | – | – |
| CC1=C(C(=O)Nc2csc(C)n2)C(c2ccc(Cl)cc2)C2=C(CCCC2=O)N1 (stereo not shown) [Compound A5, 4-(4-Chlorophenyl)-2-methyl-N-(2-methylthiazol-4-yl)-5-oxo-1,4,5,6,7,8-hexahydroquinoline-3-carboxamide] | 253 °C | 87.4 ± 1.5 µM | 31.5 ± 3.3 µM | 72.9 ± 12.3 µM | 71.1 ± 10.1 µM | 40.3 ± 3 µM | 69.5 ± 12.5 µM | > 50 µM | G0/G1 (MES-SA-DX5 cells; 10 µM): 56.07 ± 0.3; G2/M (MES-SA-DX5 cells; 10 µM): 24.20 ± 1.2; S (MES-SA-DX5 cells; 10 µM): 19.03 ± 0.9; Sub G1 (MES-SA-DX5 cells; 10 µM): 0.65 ± 0.2; G0/G1 (MES-SA-DX5 cells; 25 µM): 58.03 ± 0.7; G2/M (MES-SA-DX5 cells; 25 µM): 22.33 ± 0.5; S (MES-SA-DX5 cells; 25 µM): 18.90 ± 0.9; Sub G1 (MES-SA-DX5 cells; 25 µM): 0.70 ± 0.3; G0/G1 (MES-SA-DX5 cells; 100 µM): 48.92 ± 1.4; G2/M (MES-SA-DX5 cells; 100 µM): 29.32 ± 1.2; S (MES-SA-DX5 cells; 100 µM): 18.58 ± 0.6 |
| COc1ccc(C2C(C(=O)Nc3csc(C)n3)=C(C)NC3=C2C(=O)CCC3)cc1OC (stereo not shown) [Compound A8, 4-(3,4-Dimethoxyphenyl)-2-methyl-N-(2-methylthiazol-4-yl)-5-oxo-1,4,5,6,7,8-hexahydroquinoline-3-carboxamide] | 222 °C | > 100 µM | > 100 µM | > 100 µM | – | > 100 µM | – | – | – |
| COc1ccc(C2C(C(=O)Nc3csc(C)n3)=C(C)NC3=C2C(=O)CCC3)cc1 (stereo not shown) [Compound A7, 4-(4-Methoxyphenyl)-2-methyl-N-(2-methylthiazol-4-yl)-5-oxo-1,4,5,6,7,8-hexahydroquinoline-3-carboxamide] | 185 °C | > 100 µM | > 100 µM | > 100 µM | – | > 100 µM | – | – | – |

Now from value to compound, other results behind:

| melting point | IC50 (A-549; Homo sapiens, A549, 72 h) | IC50 (K562; Homo sapiens, K562, 72 h) | IC50 (MCF-7; Homo sapiens, MCF7, 72 h) | Compound | IC50 (HEK-293; 72 h) | IC50 (MES-SA-DX5; Homo sapiens, MES-SA/Dx5, 72 h) | IC50 (MES-SA; Homo sapiens, MES-SA) | IC50 (HEK-293; Homo sapiens, HEK293, 72 h) | other results |
| --- | --- | --- | --- | --- | --- | --- | --- | --- | --- |
| 241 °C | > 100 µM | 50.2 ± 2.6 µM | > 100 µM | Cc1nc(NC(=O)c2c(C)nc3c(c2-c2cccc(Cl)c2)C(=O)CCC3)cs1 [Compound B3, 4-(3-Chlorophenyl)-2-methyl-N-(2-methylthiazol-4-yl)-5-oxo-5,6,7,8-tetrahydroquinoline-3-carboxamide] | > 100 µM | 85.2 ± 7.4 µM | > 100 µM | > 50 µM | – |
| 166 °C | > 100 µM | 32.9 ± 5.1 µM | > 100 µM | COc1ccc(-c2c(C(=O)Nc3csc(C)n3)c(C)nc3c2C(=O)CCC3)cc1 [Compound B7, 4-(4-Methoxyphenyl)-2-methyl-N-(2-methylthiazol-4-yl)-5-oxo-5,6,7,8-tetrahydroquinoline-3-carboxamide] | – | > 100 µM | – | – | – |
| 251 °C | 91 ± 4.6 µM | 10.4 ± 1.5 µM | 89.5 ± 3.5 µM | Cc1nc(NC(=O)c2c(C)nc3c(c2-c2ccc(Cl)cc2)C(=O)CCC3)cs1 [Compound B5, 4-(4-Chlorophenyl)-2-methyl-N-(2-methylthiazol-4-yl)-5-oxo-5,6,7,8-tetrahydroquinoline-3-carboxamide] | 64.2 ± 1.1 µM | 62.3 ± 5.5 µM | > 100 µM | > 50 µM | G0/G1 (MES-SA-DX5 cells; 10 µM): 53.87 ± 0.7; G2/M (MES-SA-DX5 cells; 10 µM): 27.27 ± 2.6; S (MES-SA-DX5 cells; 10 µM): 18.13 ± 1.9; Sub G1 (MES-SA-DX5 cells; 10 µM): 0.62 ± 0.1; G0/G1 (MES-SA-DX5 cells; 25 µM): 55.43 ± 1.3; G2/M (MES-SA-DX5 cells; 25 µM): 26.07 ± 2.7; S (MES-SA-DX5 cells; 25 µM): 17.73 ± 1.3; Sub G1 (MES-SA-DX5 cells; 25 µM): 0.69 ± 0.1; G0/G1 (MES-SA-DX5 cells; 100 µM): 57.58 ± 0.9; G2/M (MES-SA-DX5 cells; 100 µM): 26.87 ± 0.9; S (MES-SA-DX5 cells; 100 µM): 13.62 ± 0.8 |
| 238 °C | > 100 µM | > 100 µM | > 100 µM | COc1cc(-c2c(C(=O)Nc3csc(C)n3)c(C)nc3c2C(=O)CCC3)cc(OC)c1OC [Compound B4, 2-Methyl-N-(2-methylthiazol-4-yl)-5-oxo-4-(3,4,5-trimethoxyphenyl)-5,6,7,8-tetrahydroquinoline-3-carboxamide] | – | > 100 µM | – | – | – |
| 267 °C | > 100 µM | > 100 µM | > 100 µM | CCOc1cc(-c2c(C(=O)Nc3csc(C)n3)c(C)nc3c2C(=O)CCC3)ccc1O [Compound B6, 4-(3-Ethoxy-4-hydroxyphenyl)-2-methyl-N-(2-methylthiazol-4-yl)-5-oxo-5,6,7,8-tetrahydroquinoline-3-carboxamide] | – | > 100 µM | – | – | – |
